How the values were obtained:
[1] = Solubility in water; format: physicochemical
Method: The present invention combines particle populations of at least two distinct aripiprazole prodrugs. In a preferred embodiment the composition comprises a particle population of aripiprazole lauroxil and aripiprazole cavoxil particles. The physical and chemical properties of the aripiprazole prodrugs within the scope of the present invention can vary considerably. For instance, aripiprazole cavoxil was determined to have a solubility in water of less than about 1 μg/ml, whereas aripiprazole lauroxil was determined to have a solubility of less than about 4 ng/mL.

[2] = Solubility in a solution comprising 1.5% (w/w) polysorbate 20; format: physicochemical; settings: aqueous solution with 1.5% (w/w) polysorbate 20, aqueous with cosolvent or surfactant or cyclodextrin; 1.5% (w/w) polysorbate 20 at 40° C., pH 7
Source text: These represent significant differences in the water solubility of the aforementioned prodrugs.

Compound	solubility [1]	solubility [2]
CCCCCC(=O)OCN1C(=O)CCc2ccc(OCCCCN3CCN(c4cccc(Cl)c4Cl)CC3)cc21 [aripiprazole cavoxil, (7-(4-(4-(2,3-Dichlorophenyl)piperazin-1-yl)butoxy)-2-oxo-3,4-dihydroquinolin-1(2H)yl)methyl hexanoate]	< 1 µg/mL	< 50 µg/mL
CCCCCCCCCCCC(=O)OCN1C(=O)CCc2ccc(OCCCCN3CCN(c4cccc(Cl)c4Cl)CC3)cc21 [aripiprazole lauroxil, Dodecanoic acid, [7-[4-[4-(2,3-dichlorophenyl)-1-piperazinyl]butoxy]-3,4-dihydro-2-oxo-1(2H)-quinolinyl]methyl ester]	< 0.004 µg/mL	< 2 µg/mL
